In brackets after ≈: the same amount, converted by molar mass.
How the values were obtained:
Assay type in all cases: physicochemical
[1] = PEG-stability analyses: Form C/Form D mixture slurried in PEG300 with water
Method: Of particular interest was whether Form D would convert to a hydrate (e.g., Form C) in the presence of water. To investigate the critical water concentration for phase interconversion between Pattern C and D, a series experiments were designed (as summarized in TABLE 16). A 1:1 mixture of Forms C and D was prepared and slurried in PEG 300 with different levels of water concentrations. Phase transformations were monitored with XRD, and are summarized in FIG. 85, which (from top to bottom) provides XRD of Form C, Form D, the mixture following incubation in PEG300 containing 75% water, the mixture following incubation in PEG300 containing 50% water, the mixture following incubation in PEG300 containing 25% water, the mixture following incubation in PEG300 containing 10% water, and the mixture following incubation in PEG300 containing 5% water. […] Form D is the stable form in PEG300 with less than 50% water.

[2] = Competitive slurry experiments (solvent-mediated polymorph transformation, XRD); details: room temperature, water, MTBE or n-heptane, 1 and 7 days, listed as Pattern C
Method: Polymorph stability and interconversions were analyzed with competitive slurry experiments. The competitive slurry (solvent-mediated transformation) experiments were performed on Forms A, B, D, E, F, G, and I generated through scaled-up crystallization (summarized in TABLE 11). […] The suspensions were aliquoted at one day and seven days and filtered to isolate the solids. Remaining solid was analyzed by XRD without drying.
In FIG. 66, the second spectrum from the top corresponds to Form E. These XRD data confirmed that Patterns C, K, and D were afforded in these solvents.
In order to further confirm the rank of stability order of the selected forms and extend the temperature range of stability relationship up to 70° C. covering potential API process conditions, binary form slurries were conducted with starting mixtures of (1) Forms A and D, and (2) Forms D and E. The resultant polymorphs were characterized with XRD after 1 and 7 days, the results of which analyses are shown in FIGURE S 67-68 and summarized in TABLE 13. Pattern D stood out from both binary mixture slurries of A & D and of D & E after seven-day stirring at the elevated temperature.
Additional single form slurry experiments were conducted on Forms A, D, and E in either water or heptane at room temperature. […] In agreement with prior competitive slurry experiments, Form D was stable at room temperature in n-heptane. Pattern E was obtained from slurries starting with Forms A and E in n-heptane. As expected, Form C was formed from the Pattern E slurry in water.

[3] = Thermal stress studies at 60° C. (XRD, HPLC); details: incubated at 60° C., in less than 1 day
Method: Briefly, 20 mg of solid Form A, B, C, D, E, F, G, and I were weighed into 7 mL glass vials. The vials were covered with tissue and stored in ovens set to 60° C. and ambient pressure. Following 1 and 7 days incubation, solid was collected for XRD analysis.
As shown in these figures, Forms B and C converted to Forms D and A, respectively, while the other forms remained unchanged.
The starting materials, intermediates (1 day of thermal stress), and products (7 days of thermal stress) were analyzed by H PLC. Representative chromatograms from the Form D thermal stress analyses are shown in FIGS. 81-83 (starting material, 1 day, and 7 day samples, respectively).

[4] = Solubility of Form C in binary solvent systems (TABLE 22)
[5] = Equilibrium-solubility screening in solvents and excipients
Method: For these analyses, Form D or Form C was mixed with 0.5 or 1.0 mL of solvents and equilibrated for approximately 24 hours. The mixture was filtered through 0.45 μm centrifuge filters.
As expected, the compound was not easily ionized at physiologically relevant pH. […] In addition, these excipients included surfactants, co-solvents, and lipids which are amenable for use in self-emulsifying drug delivery systems (SEDDS). The XRD pattern of the starting material was maintained for each sample after equilibrium.

[6] = Supersaturation monitoring in PEG 300; details: PEG 300 (0.5 mL)
[7] = Moisture-sorption analysis (DVS); details: dynamic vapor sorption
Method: Gravimetric moisture sorption experiment was performed on all materials by first holding the sample at 40% RH and 25° C. until an equilibrium weight was reached or for a maximum of 4 h. The sample was then subjected to an isothermal (25° C.) adsorption scan from 40% to 90% R H in steps of 10% RH. The sample was allowed to equilibrate to an asymptotic weight at each point for a maximum of 4 h. Following adsorption, a desorption scan from 90% to 0% RH (at 25° C.) was run in steps of −10% R H allowing a maximum of 4 h for equilibration to an asymptotic weight. An adsorption scan was then performed from 0% RH to 40% RH in steps of +10% R H. The sample was then dried for more than 2 h at 60° C. 0% R H and the resulting solid analyzed by XRD.
FIGS. 88-92 provide physical analyses of lot 1. […] FIG. 90 provides a modulated DSC thermogram of lot 1, and identifies a glass transition temperature midpoint of around 48.5° C. […] FIG. 92 provides dynamic vapor sorption plots of lot 1, indicating 2.49 weight percent water vapor adsorption at 90% relative humidity, 1.25 weight percent water vapor adsorption at 60% relative humidity, and close to complete water vapor desorption at 0% relative humidity.
FIG. 95 provides polarized-light microscope images of lot 2 at 200× magnification, with 50 and 100 μm scales shown. […] FIG. 96 provides dynamic vapor sorption plots of lot 2, indicating 3.99 weight percent water vapor adsorption at 60% relative humidity, 4.12 weight percent water vapor adsorption at 90% relative humidity, and close to complete water vapor desorption at 0% relative humidity.

[8] = Differential scanning calorimetry (DSC): heat of fusion, thermal events; details: DSC thermogram of lot
Method: Differential scanning calorimetry analyses were performed on each sample “as is.” Unless otherwise specified, samples were weighed in an aluminum pan, covered with a pierced lid, and then crimped and analyzed from 30-300° C. ramped at 10° C./min.
The DSC data were used to determine the heat of fusion for Forms A, B, D, and F, based on their heats of fusion as measured during conversion from Form C.

[9] = Particle size analysis (Malvern particle sizer, dry method; optical microscopy); details: for Size range / birefringence / crystal shape: polarized-light microscopic images
Method: Particle size was first analyzed with optical microscopy.
Particle size was also analyzed with a dry-method using a Malvern 300 particle sizer equipped with a standard energy venturi and utilizing 2.5 bar, 3.0 bar, and 3.5 bar air pressure. […] One possible explanation is that the insufficient energy was provided to break up particle agglomerations.
Based on these findings, particle size analysis was repeated at 2.5, 3.0, and 3.5 bar using a higher energy venturi to ensure the break-up of the potential agglomerates. The detailed particle sizing data using high-energy venturi are summarized in TABLE 26 and in FIGS. 114-119, with FIGS. 114-116 corresponding to 2.5, 3.0, and 3.5 bar analyses of unmilled Form D and FIGS. 117-119 corresponding to 2.5, 3.0, and 3.5 bar analyses of micronized Form D, respectively. While the data remained bimodal, indicating incomplete break-up of particle agglomerates, the D90 of micronized material measured below 6 μm, in closer agreement with the optical analyses.

[10] = Thermal gravimetric analysis (TGA); details: TGA thermogram of lot
Method: Thermal gravimetric analyses were performed on each sample “as is.” Unless otherwise noted, samples were weighed in an alumina crucible and analyzed from 30-350° C. at 10° C./min.
Form C weight loss at 39° C.-50° C. likely reflected methanol loss.

[11] = Bulk and tapped density (tap density tester); details: listed as micronixed form
Excerpt: Before milling, Form D was screened through a 30-micron mesh sieve. Then, Form D micronized using a 2-inch jet mill 70 psig feed pressure, 40 psig grinding pressure, and a 4.3 g/min powder feed rate. The micronization process provided a 69% yield and 95.6% crystallinity relative to the unmilled material.

## CC[C@H](C)C(=O)N1CCC(NC(=O)Nc2ccc(OC(F)(F)F)c(F)c2)CC1 [C (50%) + D (50%)]
[1]; H2O:PEG 300 = 50%:50%
  XRD Pattern at Equilibrium: C (major) + D (minor)

## CC[C@H](C)C(=O)N1CCC(NC(=O)Nc2ccc(OC(F)(F)F)c(F)c2)CC1 [Form C, (S)-1-(3-fluoro-4-(trifluoromethoxy)phenyl)-3-(1-(2-methylbutanoyl)piperidin-4-yl)urea]
[2]
  polymorph stability in competitive slurry: unstable hydrate
[3]
  conversion to Form A: 100%
[1]; 1:1 mixture of Forms C and D slurried in PEG300, XRD
  stable form in PEG300 with 50% or higher water content: more stable
[4]; IPA/n-heptane, ratio of n-heptane to primary 21.3, organic solvent or mixture
  solubility: 5000 µg/mL
[4]; ethanol/n-heptane, organic solvent or mixture, EtOH, ratio of n-heptane to primary 7.7 (1st test point)
  solubility: 38000 µg/mL
[4]; ethanol/n-heptane, organic solvent or mixture, EtOH, ratio of n-heptane to primary 13.2 (2nd test point)
  solubility: 10000 µg/mL
[4]; ethyl acetate/n-heptane, organic solvent or mixture, EtoAC, ratio of n-heptane to primary 1.4 (1st test point)
  solubility: 7000 µg/mL
[4]; ethyl acetate/n-heptane, organic solvent or mixture, EtoAC, ratio of n-heptane to primary 2.0 (2nd test point)
  solubility: 4000 µg/mL
[4]; ethyl acetate/n-heptane, organic solvent or mixture, EtoAC, ratio of n-heptane to primary 2.2 (3rd test point)
  solubility: 3000 µg/mL
[4]; organic solvent or mixture, IPA, ratio of n-heptane to primary 13.3 (1st test point)
  solubility: 30000 µg/mL
[4]; organic solvent or mixture, IPA, ratio of n-heptane to primary 13.9 (2nd test point)
  solubility: 10000 µg/mL
[4]; organic solvent or mixture, MEK, ratio of n-heptane to primary 2.0 (1st test point)
  solubility: 11000 µg/mL
[4]; organic solvent or mixture, MEK, ratio of n-heptane to primary 3.0 (2nd test point)
  solubility: 5000 µg/mL
[4]; organic solvent or mixture, MEK, ratio of n-heptane to primary 3.4 (3rd test point)
  solubility: 4000 µg/mL
[5]; PEG 300, 50%
  XRD Pattern At Equilibrium: Form C
[5]; PEG 300, 50%, aqueous with cosolvent or surfactant or cyclodextrin, thermodynamic from solid
  solubility thermodynamic at 24 h: 800 µg/mL (≈ 1970 µM)
[5]; PEG 300, 100%
  Equilibrium Solubility: 16700 µg/mL
  XRD Pattern At Equilibrium: Form D
[5]; PEG 400, 50%
  Equilibrium Solubility: 400 µg/mL
  XRD Pattern At Equilibrium: Form C
[5]; PEG 400, 100%
  Equilibrium Solubility: 17900 µg/mL
  XRD Pattern At Equilibrium: Form D
[6]; 100 mg/mL, 1. RT stirring for 1 hr, listed as Pattern C
  Step → Observation: 1. RT stirring for 1 hr →suspension
[6]; 100 mg/mL, 2. 40 C. heating for 0.5 hr, listed as Pattern C
  Step → Observation: 2. 40 °C heating for 0.5 hr →clear solution
[6]; 100 mg/mL, 3. RT storage for ~8 days, listed as Pattern C
  Step → Observation: 3. RT storage for ~8 days →clear solution
[6]; 100 mg/mL, 4. RT storage for ~9 days, listed as Pattern C
  Step → Observation: 4. RT storage for ~9 days →precipitation
[6]; 200 mg/mL, 1. RT stirring for 1 hr
  Step → Observation: 1. RT stirring for 1 hr →suspension
[6]; 200 mg/mL, 2. 40 C. heating for 48 hr, listed as Pattern C
  Step → Observation: 2. 40 °C heating for 48 hr →suspension
[6]; 200 mg/mL, 3. 55 C. heating for <16 hr
  Step → Observation: 3. 55 C. heating for <16 hr →clear solution
[6]; 200 mg/mL, 4. RT storage for <3.5 days
  Step → Observation: 4. RT storage for <3.5 days →precipitation
[6]; 200 mg/mL, 5. 55 C. reheating for overnight
  Step → Observation: 5. 55 C. reheating for overnight →clear solution
[6]; 200 mg/mL, 6. RT storage for overnight
  Step → Observation: 6. RT storage for overnight →precipitation

## CC[C@H](C)C(=O)N1CCC(NC(=O)Nc2ccc(OC(F)(F)F)c(F)c2)CC1 [lot 1]
[7]
  water vapor adsorption at 60% RH: 60% RH 1.25 wt %
  water vapor adsorption at 90% RH: 90% RH 2.49 wt %
[8]
  Endotherm (likely dehydration of bound water): 63 °C
  Exotherm (crystallization of Form B): 115 °C (crystallization of
[9]
  Size range: Size range; 5-80 μm;
  birefringence: Birefringent
  crystal shape: Irregular plate;
[10]
  wt change at 233° C.: 99% wt change
  wt change below 100° C.: 0% wt change

## CC[C@H](C)C(=O)N1CCC(NC(=O)Nc2ccc(OC(F)(F)F)c(F)c2)CC1 [lot 2]
[7]
  water vapor adsorption at 60% RH: 60% RH 3.99 wt %
  water vapor adsorption at 90% RH: 90% RH 4.12 wt %
[8]
  Endotherm (likely dehydration of bound water): 79 °C (likely dehydration of
  Endotherm (melting of Form A): 111 °C (melting of Form A),
  Exotherm (crystallization of Form B): 117 °C (crystallization of
[9]
  Size range: Size range; 5-200 μm;
  birefringence: Birefringent
  crystal shape: Irregular plate;
[10]
  wt change at 233° C.: 96% wt change
  wt change below 100° C.: 2.9% wt change

## CC[C@H](C)C(=O)N1CCC(NC(=O)Nc2ccc(OC(F)(F)F)c(F)c2)CC1 [micronized Form D, (S)-1-(3-fluoro-4-(trifluoromethoxy)phenyl)-3-(1-(2-methylbutanoyl)piperidin-4-yl)urea]
[11]
  bulk density: 0.20 g/mL
  tapped density: 0.22 g/mL
[9]; higher energy venturi, 2.5, 3.0 and 3.5 bar
  D90 particle size: below 6 μm

Source: US20260166021A1, “POLYMORPHIC FORMS OF A SOLUBLE EPOXIDE HYDROLASE INHIBITOR AND FORMULATIONS THEREOF” (EicOsis, LLC, priority 2022, published 2026)
